This note sets out measurements from patent publication US11472803B2, “7-substituted 1-aryl-naphthyridine-3-carboxylic acid amides and use thereof” (Bayer Aktiengesellschaft, priority 2016, dated 2022).

pEC50: −log10 of the molar value.

Test [1] concerns the target T1, human M2 receptor (Homo sapiens, UniProt P08172).
T1 construct: expressed in transfected cells; host or cells: CHO-DUKX (CHO-DUKX-M2-GIRK)
T1 sequence (P08172 1-466): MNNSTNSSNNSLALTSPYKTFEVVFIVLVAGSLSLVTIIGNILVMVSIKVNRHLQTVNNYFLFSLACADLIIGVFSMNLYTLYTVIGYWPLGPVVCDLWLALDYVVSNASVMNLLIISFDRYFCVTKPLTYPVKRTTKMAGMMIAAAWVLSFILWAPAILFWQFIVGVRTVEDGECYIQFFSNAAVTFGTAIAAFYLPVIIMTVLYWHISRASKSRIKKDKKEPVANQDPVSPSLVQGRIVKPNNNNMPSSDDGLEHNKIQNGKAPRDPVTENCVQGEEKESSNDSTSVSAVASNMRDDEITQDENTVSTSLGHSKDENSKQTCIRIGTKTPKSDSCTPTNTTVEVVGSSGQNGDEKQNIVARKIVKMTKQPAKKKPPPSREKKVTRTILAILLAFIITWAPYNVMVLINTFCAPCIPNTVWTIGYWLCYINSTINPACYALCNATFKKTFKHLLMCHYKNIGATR
Description: Functional M2-GIRK1/4 activation test: allosteric potency (EC50) and efficiency at EC20 acetylcholine. Format: cell-based. As to conditions: CHO-DUKX-M2-GIRK cells. The gist of the method:
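CHO-DUKX cells stably expressing human M2 and GIRK1/4; membrane potential tracked with voltage-sensitive dye at room temperature. Compound added 50 s before acetylcholine at its EC20, then hyperpolarization read 60 s. EC50 (allosteric potency) and efficiency (boost of EC20 ACh effect) from 4-parameter Hill fit.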

Test [2] has as its target T1, human M2 receptor. Nature of the test: Functional M2-GIRK1/4 activation test: positive cooperativity (α factor), shift of acetylcholine dose-response curve. Format: cell-based. As to conditions: Allosteric EC50 shift of acetylcholine 8-point dose-response curve; CHO-DUKX-M2-GIRK cells; α>1 = positive cooperativity. The gist of the method:
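CHO-DUKX cells stably expressing human M2 and GIRK1/4, loaded with voltage-sensitive dye at room temperature; hyperpolarization followed by fluorescence. Each test-substance concentration, added first, combined with an 8-point acetylcholine dose-response; shift of the acetylcholine curve analysed by allosteric EC50 shift model to give cooperativity factor α.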

As to `O=C(NC(C(F)(F)F)C(F)(F)F)c1cn(-c2c(F)cc(F)cc2F)c2nc(N3CC(CO)(CO)C3)c(F)cc2c1=O` [Example 230, 7-[3,3-bis(hydroxymethyl)azetidin-1-yl]-6-fluoro-N-(1,1,1,3,3,3-hexafluoropropan-2-yl)-4-oxo-1-(2,4,6-trifluorophenyl)-1,4-dihydro-1,8-naphthyridine-3-carboxamide], the pEC50 (in general, −log10 of the EC50, conventionally taken in molar units) at human M2 receptor [1] (voltage-sensitive dye, acetylcholine at EC20, in some cases mean of two or more determinations) is 8.01. In addition, the Emax (commonly the greatest response seen or fitted, relative to the assay's reference) at human M2 receptor [1] (boosting of the acetylcholine effect at EC20 acetylcholine concentration) came out at 97%. Moreover, the “Cooperativity (alpha factor)” value on human M2 receptor [2] was determined as 36.
